Measurements as given in paper PMC11423305, “Structure-Based Design of CBP/EP300 Degraders: When Cooperativity Overcomes Affinity” (JACS Au, 2024).

Tested on: crebbp and ep300 expression
Assay: Gene expression analysis by RT-qPCR in LP1 cells
Assay type: cell-based
Details: 16 h, 1 μM, normalized to hprt
Procedure: cooperativity factor (α) was defined as the ratio of the IC50 values in the absence and […]
For the ternary complex experiments, the final assay composition was: 0.1 % DMSO, 5 nM GST-CBP, 5 nM CRBN-Avi(biotin), 100 mM KF, 0.625 nM XL665-Streptavidin conjugate and 0.8 nM anti-GST mAb – Eu3+-cryptate. The maximal control contained 40 nM dCBP-1, the blank contained no PROTAC. Hook curves were generated by normalization to the maximal control.
LP1 cells were cultured in DMEM (Gibco, 41966-029) supplemented with 15 % FBS (Sigma, F9665); MM1S and LNCaP cells in RPMI 1640 ATCC modification (Gibco, […]
DMEM/F12 (Gibco, 11320074) supplemented with 1 % non-essential amino acids […]
Quantification of CBP/EP300 degradation by Western blotting
LP1 cells plated on 6 well plates were treated with the stated compounds at a final concentration of 0.1 % DMSO for the stated time. […] Protein concentrations were determined using the Pierce ™ BCA Protein Assay Kit (Thermo Scientific, 23227) and equal amounts were separated on 4-12 % ExpressPl us™ PAGE gels (GenScript, M41215). […]
SuperSignal™ West Pico PLUS Chemiluminescent Substrate (Thermo Scientific, 34580) and the Vilber Fusion-FX7 imager. Bands were quantified using ImageJ software and protein levels normalized to protein from DMSO treated cells run on the same membrane. […]

`Cc1cc2c(NC(=O)c3cc(NC(=O)CCCCCCCCCCNc4cccc5c4C(=O)N(C4CCC(=O)NC4=O)C5=O)cc(-c4ccn(C)n4)c3)cccc2nn1` (stereo not shown) [dCE-2] was tested, and the “crebbp and ep300 expression” value was “mild upregulation”.
